# According to patent US10227323B2, “Glucosylceramide synthase inhibitors for the treatment of diseases” (BIOMARIN PHARMACEUTICAL INC., priority 2013, dated 2019):
# Target: T1, GCS (Canis lupus familiaris, UniProt A0A8I3MXG6)
# T1 sequence (A0A8I3MXG6 1-394): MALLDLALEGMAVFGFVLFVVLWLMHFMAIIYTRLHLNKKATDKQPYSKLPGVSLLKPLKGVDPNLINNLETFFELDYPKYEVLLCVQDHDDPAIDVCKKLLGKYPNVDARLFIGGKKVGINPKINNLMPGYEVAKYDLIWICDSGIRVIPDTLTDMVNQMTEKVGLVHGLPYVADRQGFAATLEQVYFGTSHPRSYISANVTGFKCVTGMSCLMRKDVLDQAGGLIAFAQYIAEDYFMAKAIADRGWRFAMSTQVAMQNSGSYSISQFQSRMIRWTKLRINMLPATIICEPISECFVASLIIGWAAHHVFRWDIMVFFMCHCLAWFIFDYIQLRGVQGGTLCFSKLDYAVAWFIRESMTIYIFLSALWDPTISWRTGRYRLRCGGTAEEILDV
# Test: Assay 1: GCS Enzymatic Assay (MDCK cell lysate, C6-NBD-Ceramide, LC/MS)
# Format: biochemical, canine
# Conditions: Table 2; data marked by *
# In short: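 LC/MS/MS measurement of glucosylceramide and NBD-ceramide after a 1 h, 37 °C reaction with 100 μM UDP-glucose and 10 μM C6-NBD-ceramide gave IC50s or percent inhibition.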
row,Structure (SMILES),% inhibition generated from Assay 1
1,"O=C(N[C@H](CN1CCCC1)[C@H](O)c1ccc(OC2CC2)c(Cl)c1)C(F)(F)c1ccc(-c2ccc(F)cc2)nc1 [Compound 247, N-((1R,2R)-1-(3-chloro-4-cyclopropoxyphenyl)-1-hydroxy-3-(pyrrolidin-1-yl)propan-2-yl)-2,2-difluoro-2-(6-(4-fluorophenyl)pyridin-3-yl)acetamide]",A* (the compound had a % inhibition of a percent inhibition of greater than or equal to about 50%)
2,"O=C(N[C@H](CN1CCCC1)[C@H](O)c1ccc2c(c1)OCCO2)C(=O)N1CCN(c2ccc(F)cc2)CC1 [Compound 252, N-((1R,2R)-1-(2,3-dihydrobenzo[b][1,4]dioxin-6-yl)-1-hydroxy-3-(pyrrolidin-1-yl)propan-2-yl)-2-(4-(4-fluorophenyl)piperazin-1-yl)-2-oxoacetamide]",A* (the compound had a % inhibition of a percent inhibition of greater than or equal to about 50%)

# Same assay, conditions: Table 2; data without asterisk; read-out: IC50 (nM) generated from Assay 1
row,Structure (SMILES),IC50 [nM]
1,"CC(C)n1cc2ccc(-c3ccc(C(=O)C(=O)N[C@H](CN4CCCC4)[C@H](O)c4ccc(OC5CC5)c(Cl)c4)cc3)cc2n1 [Compound 257, N-((1R,2R)-1-(3-chloro-4-cyclopropoxyphenyl)-1-hydroxy-3-(pyrrolidin-1-yl)propan-2-yl)-2-(4-(2-isopropyl-2H-indazol-6-yl)phenyl)-2-oxoacetamide]",< 50
2,"O=C(N[C@H](CN1CCCC1)[C@H](O)c1cc(F)c2c(c1)OCCO2)C(=O)c1ccc(-c2ccc(Cl)s2)cc1 [Compound 360, 2-(4-(5-chlorothiophen-2-yl)phenyl)-N-((1R,2R)-1-(8-fluoro-2,3-dihydrobenzo[b][1,4]dioxin-6-yl)-1-hydroxy-3-(pyrrolidin-1-yl)propan-2-yl)-2-oxoacetamide]",< 50
3,"COc1c(F)cc([C@@H](O)[C@@H](CN2CCCC2)NC(=O)C(=O)c2ccc(-c3ccc(F)cc3)cc2)cc1OC(C)C [Compound 361, N-((1R,2R)-1-(3-fluoro-5-isopropoxy-4-methoxyphenyl)-1-hydroxy-3-(pyrrolidin-1-yl)propan-2-yl)-2-(4′-fluoro-[1,1′-biphenyl]-4-yl)-2-oxoacetamide]",50 to 5000
4,"CC1(C)COc2c(F)cc([C@@H](O)[C@@H](CN3CCCC3)NC(=O)C(=O)c3ccc(-c4ccc(F)cc4)cc3)cc2O1 [Compound 362, N-((1R,2R)-1-(8-fluoro-3,3-dimethyl-2,3-dihydrobenzo[b][1,4]dioxin-6-yl)-1-hydroxy-3-(pyrrolidin-1-yl)propan-2-yl)-2-(4′-fluoro-[1,1′-biphenyl]-4-yl)-2-oxoacetamide]",< 50
5,"O=C(N[C@H](CN1CCCC1)[C@H](O)c1ccc(OC2CC2)c(Cl)c1)C(=O)c1ccc(-c2ccc(Cl)s2)cc1 [Compound 363, N-((1R,2R)-1-(3-chloro-4-cyclopropoxyphenyl)-1-hydroxy-3-(pyrrolidin-1-yl)propan-2-yl)-2-(4-(5-chlorothiophen-2-yl)phenyl)-2-oxoacetamide]",< 50
6,"COc1c(F)cc([C@@H](O)[C@@H](CN2CCCC2)NC(=O)C(=O)c2cc3ccc(Cl)cc3s2)cc1OC(C)C [Compound 364, 2-(6-chlorobenzo[b]thiophen-2-yl)-N-((1R,2R)-1-(3-fluoro-5-isopropoxy-4-methoxyphenyl)-1-hydroxy-3-(pyrrolidin-1-yl)propan-2-yl)-2-oxoacetamide]",50 to 5000
7,"O=C(N[C@H](CN1CCCC1)[C@H](O)c1ccc(OC2CC2)c(Cl)c1)C(=O)c1cc2ccc(Cl)cc2o1 [Compound 365, N-((1R,2R)-1-(3-chloro-4-cyclopropoxyphenyl)-1-hydroxy-3-(pyrrolidin-1-yl)propan-2-yl)-2-(6-chlorobenzofuran-2-yl)-2-oxoacetamide]",< 50
8,"O=C(N[C@H](CN1CCCC1)[C@H](O)c1cc(F)c2c(c1)OCCO2)C(=O)c1cc2ccc(Cl)cc2o1 [Compound 366, 2-(6-chlorobenzofuran-2-yl)-N-((1R,2R)-1-(8-fluoro-2,3-dihydrobenzo[b][1,4]dioxin-6-yl)-1-hydroxy-3-(pyrrolidin-1-yl)propan-2-yl)-2-oxoacetamide]",< 50
9,"O=C(N[C@H](CN1CCCC1)[C@H](O)c1ccc(OC2CC2)c(Cl)c1)C(=O)c1ccc(N2CCOCC2)cc1 [Compound 368, N-((1R,2R)-1-(3-chloro-4-cyclopropoxyphenyl)-1-hydroxy-3-(pyrrolidin-1-yl)propan-2-yl)-2-(4-morpholinophenyl)-2-oxoacetamide]",< 50
10,"O=C(N[C@H](CN1CCC1)[C@H](O)c1cc(F)c2c(c1)OCCO2)C(=O)c1ccc(N2CCOCC2)cc1 [Compound 369, N-((1R,2R)-3-(azetidin-1-yl)-1-(8-fluoro-2,3-dihydrobenzo[b][1,4]dioxin-6-yl)-1-hydroxypropan-2-yl)-2-(4-morpholinophenyl)-2-oxoacetamide]",< 50
11,"O=C(N[C@H](CN1CCCC1)[C@H](O)c1ccc(OC2CC2)c(Cl)c1)C(=O)c1ccc(-c2ccc(C3CC3)cc2)cc1 [Compound 370, N-((1R,2R)-1-(3-chloro-4-cyclopropoxyphenyl)-1-hydroxy-3-(pyrrolidin-1-yl)propan-2-yl)-2-(4′-cyclopropyl-[1,1′-biphenyl]-4-yl)-2-oxoacetamide]",< 50
12,"O=C(N[C@H](CN1CCCC1)[C@H](O)c1cc(F)c2c(c1)OCCO2)C(=O)c1ccc(-c2ccc(C3CC3)cc2)cc1 [Compound 371, 2-(4′-cyclopropyl-[1,1′-biphenyl]-4-yl)-N-((1R,2R)-1-(8-fluoro-2,3-dihydrobenzo[b][1,4]dioxin-6-yl)-1-hydroxy-3-(pyrrolidin-1-yl)propan-2-yl)-2-oxoacetamide]",< 50
13,"O=C(N[C@H](CN1CCCC1)[C@H](O)c1ccc(OC2CC2)c(Cl)c1)C(=O)c1ccc(C2CCOCC2)cc1 [Compound 372, N-((1R,2R)-1-(3-chloro-4-cyclopropoxyphenyl)-1-hydroxy-3-(pyrrolidin-1-yl)propan-2-yl)-2-oxo-2-(4-(tetrahydro-2H-pyran-4-yl)phenyl)acetamide]",< 50

# The next lines start with the values.
row,IC50 [nM],Structure (SMILES)
1,< 50,"Cn1ncc2ccc(-c3ccc(C(=O)C(=O)N[C@H](CN4CCCC4)[C@H](O)c4cc(F)c5c(c4)OCCO5)cc3)cc21 [Compound 246, N-((1R,2R)-1-(8-fluoro-2,3-dihydrobenzo[b][1,4]dioxin-6-yl)-1-hydroxy-3-(pyrrolidin-1-yl)propan-2-yl)-2-(4-(1-methyl-1H-indazol-6-yl)phenyl)-2-oxoacetamide]"
2,< 50,"O=C(N[C@H](CN1CCC1)[C@H](O)c1cc(F)c2c(c1)OCCO2)C(=O)c1cccc(Oc2ccc(F)cc2)c1 [Compound 248, N-((1R,2R)-3-(azetidin-1-yl)-1-(8-fluoro-2,3-dihydrobenzo[b][1,4]dioxin-6-yl)-1-hydroxypropan-2-yl)-2-(3-(4-fluorophenoxy)phenyl)-2-oxoacetamide]"
3,< 50,"O=C(N[C@H](CN1CCCC1)[C@H](O)c1ccc(OC2CC2)c(Cl)c1)C(=O)c1cccc(Oc2ccc(F)cc2)c1 [Compound 249, N-((1R,2R)-1-(3-chloro-4-cyclopropoxyphenyl)-1-hydroxy-3-(pyrrolidin-1-yl)propan-2-yl)-2-(3-(4-fluorophenoxy)phenyl)-2-oxoacetamide]"
4,< 50,"O=C(N[C@H](CN1CCCC1)[C@H](O)c1cc(F)c2c(c1)OCCO2)C(=O)c1cccc(-c2ccc(F)cc2)c1 [Compound 250, N-((1R,2R)-1-(8-fluoro-2,3-dihydrobenzo[b][1,4]dioxin-6-yl)-1-hydroxy-3-(pyrrolidin-1-yl)propan-2-yl)-2-(4′-fluoro-[1,1′-biphenyl]-3-yl)-2-oxoacetamide]"
5,< 50,"O=C(N[C@H](CN1CCCC1)[C@H](O)c1ccc(OC2CC2)c(Cl)c1)C(=O)c1cccc(-c2ccc(F)cc2)c1 [Compound 251, N-((1R,2R)-1-(3-chloro-4-cyclopropoxyphenyl)-1-hydroxy-3-(pyrrolidin-1-yl)propan-2-yl)-2-(4′-fluoro-[1,1′-biphenyl]-3-yl)-2-oxoacetamide]"
6,< 50,"O=C(N[C@H](CN1CCC1)[C@H](O)c1ccc(OC2CC2)c(Cl)c1)C(=O)c1ccc(-c2ccc(F)cc2)cc1 [Compound 253, N-((1R,2R)-3-(azetidin-1-yl)-1-(3-chloro-4-cyclopropoxyphenyl)-1-hydroxypropan-2-yl)-2-(4′-fluoro-[1,1′-biphenyl]-4-yl)-2-oxoacetamide]"
7,< 50,"O=C(N[C@H](CN1CCCC1)[C@H](O)c1cc(F)c2c(c1)OCCO2)C(=O)N1CCN(c2ccc(F)cc2)CC1 [Compound 254, N-((1R,2R)-1-(8-fluoro-2,3-dihydrobenzo[b][1,4]dioxin-6-yl)-1-hydroxy-3-(pyrrolidin-1-yl)propan-2-yl)-2-(4-(4-fluorophenyl)piperazin-1-yl)-2-oxoacetamide]"
8,< 50,"CC(C)(C)c1ccc(-c2ccc(C(=O)C(=O)N[C@H](CN3CCCC3)[C@H](O)c3ccc(OC4CC4)c(Cl)c3)cc2)cc1 [Compound 255, 2-(4′-(tert-butyl)-[1,1′-biphenyl]-4-yl)-N-((1R,2R)-1-(3-chloro-4-cyclopropoxyphenyl)-1-hydroxy-3-(pyrrolidin-1-yl)propan-2-yl)-2-oxoacetamide]"
9,< 50,"CC(C)n1ncc2ccc(-c3ccc(C(=O)C(=O)N[C@H](CN4CCCC4)[C@H](O)c4ccc(OC5CC5)c(Cl)c4)cc3)cc21 [Compound 256, N-((1R,2R)-1-(3-chloro-4-cyclopropoxyphenyl)-1-hydroxy-3-(pyrrolidin-1-yl)propan-2-yl)-2-(4-(1-isopropyl-1H-indazol-6-yl)phenyl)-2-oxoacetamide]"
